According to article PMC9774241, “Associating Biological Activity and Predicted Structure of Antimicrobial Peptides from Amphibians and Insects” (Antibiotics, 2022):
≈ marks a conversion by molar mass, not a printed value. Residues, ends and D or L forms follow the SMILES beside them. No end group written: not given here.

Key:
Type in all cases: cell-based
Conditions in all cases: broth microdilution in MHB, peptide 128 down to 0.5 µg/mL, 20–24 h at 37 °C, no visible growth; range of three independent experiments
[1] = test system: Escherichia coli ATCC 25922
Protocol: (§1) Bacteria were grown overnight at 37 °C in Mueller-Hinton Broth (MHB; Sigma-Aldrich, St. Louis. MO, USA) in a shaking incubator and aliquoted into cryovials with a 50% glycerol solution in a 1:1 ratio. No additives were added to the MHB during the growth of bacterial isolates. Glycerol stocks were stored at −80 °C.
(§2) The antimicrobial activity of the putative AMPs was determined by a broth microdilution assay as described by the Clinical and Laboratory Standards Institute, with the published adaptations for testing of cationic peptides. Escherichia coli 25922 and Staphylococcus aureus 29213 isolates were purchased from the American Type Culture Collection (ATCC; Manassas, VA, USA). A human clinical isolate of Salmonella enterica serovar Enteritidis was provided by the BC Centre for Disease Control. Bacteria from stocks stored at −80 °C were streaked onto nonselective Columbia blood agar with 5% sheep blood (Oxoid) and incubated overnight at 37 °C. Next, 2–4 colonies were streaked onto a new agar plate to ensure uniform health of colonies used in the broth microdilution assay. Isolated colonies were suspended in MHB and the optical density was measured with a spectrophotometer to create an initial inoculum concentration of approximately 1 × 10^8 cfu/mL. The inoculum was diluted 1:250 to a final concentration of 2–8 × 10^5 cfu/mL, which was confirmed by performing a Total Viability Count (TVC). The TVC consisted of plating a 1:1000 dilution of the final inoculum on nonselective media and was also used to confirm the health and purity of the inoculum in each trial.
(§3) Lyophilized 80 µg peptide aliquots synthesized by GenScript (Piscataway, NJ, USA) were resuspended to 1.28 mg/mL with UltraPure water (Thermo Fisher Scientific, Waltham, MA, USA) and serially diluted in polypropylene 96-well microtiter plates (Greiner Bio-One #650261, Kremsmünster, Austria) from 128 down to 0.5 µg/mL. Two columns per plate were reserved for growth and sterility controls. Inoculum was added to the wells containing the peptide and the growth control. Plates were incubated for 20–24 h at 37 °C. The minimum inhibitory concentration (MIC) was determined as the lowest peptide concentration where there was no visible bacterial growth.

[2] = test system: Salmonella enterica serovar Enteritidis (human clinical isolate)
Protocol: as §1, §2, §3

[3] = test system: Staphylococcus aureus ATCC 29213
Protocol: as §1, §2, §3

## KYHHIKLRHGRHRRTIH [PaVa2]
[1]
  MIC, E. coli ATCC 25922: > 128 µg/mL
[2]
  MIC, Salmonella Enteritidis: > 128 µg/mL
[3]
  MIC, S. aureus ATCC 29213: > 128 µg/mL

## GIFSLIKGAAKVVAKGLGK [RaOm3]
[1]
  MIC, E. coli ATCC 25922: 8 to 16 µg/mL
[2]
  MIC, Salmonella Enteritidis: 32 to 64 µg/mL
[3]
  MIC, S. aureus ATCC 29213: 64 µg/mL

## CC[C@H](C)[C@H](NC(=O)[C@H](CCCCN)NC(=O)[C@H](CC(=O)O)NC(=O)[C@H](CC(C)C)NC(=O)[C@@H](NC(=O)CNC(=O)[C@@H](NC(=O)[C@H](CO)NC(=O)[C@H](Cc1ccccc1)NC(=O)[C@H](CC(N)=O)NC(=O)[C@H](CCCCN)NC(=O)[C@@H](NC(=O)CNC(=O)[C@H](CCC(=O)O)NC(=O)[C@H](CCCCN)NC(=O)[C@@H](NC(=O)[C@@H](NC(=O)[C@@H](NC(=O)[C@H](Cc1c[nH]c2ccccc12)NC(=O)[C@H](CC(C)C)NC(=O)CN)[C@@H](C)O)[C@@H](C)O)[C@@H](C)CC)C(C)C)C(C)C)C(C)C)C(=O)N[C@@H](CCCNC(=N)N)C(=O)N[C@@H](CS)C(=O)N[C@@H](CCCCN)C(=O)N[C@H](C(=O)N[C@H](C(=O)NCC(=O)NCC(=O)N[C@@H](CS)C(=O)O)[C@@H](C)O)[C@@H](C)CC [PeNi14] (H-GLWTTIKEGVKNFSVGVLDKIRCKITGGC-OH; N-terminus and C-terminus assumed)
[1]
  MIC, E. coli ATCC 25922: 4 to 8 µg/mL
[2]
  MIC, Salmonella Enteritidis: 32 µg/mL (≈ 10.2 µM)
[3]
  MIC, S. aureus ATCC 29213: 16 to 32 µg/mL

## AFVRILCYCCPRRIKRR [TeRu2, rAMPage-discovered AMP, Temnothorax rugatulus]
[1]
  MIC, E. coli ATCC 25922: 64 to 128 µg/mL
[2]
  MIC, Salmonella Enteritidis: > 128 µg/mL
[3]
  MIC, S. aureus ATCC 29213: 128 µg/mL

## CC[C@H](C)[C@H](NC(=O)CN)C(=O)N[C@@H](CC(C)C)C(=O)N[C@@H](CC(C)C)C(=O)N[C@@H](CC(N)=O)C(=O)N[C@H](C(=O)N[C@@H](CC(C)C)C(=O)N[C@@H](CCCCN)C(=O)NCC(=O)N[C@@H](C)C(=O)N[C@@H](C)C(=O)N[C@@H](CCCCN)C(=O)N[C@@H](CC(N)=O)C(=O)N[C@H](C(=O)N[C@@H](C)C(=O)NCC(=O)N[C@H](C(=O)N[C@@H](CC(C)C)C(=O)N[C@@H](CC(C)C)C(=O)N[C@@H](CC(=O)O)C(=O)N[C@@H](CCCCN)C(=O)N[C@@H](CC(C)C)C(=O)N[C@@H](CCCCN)C(=O)N[C@@H](CS)C(=O)N[C@@H](CCCCN)C(=O)N[C@H](C(=O)N[C@H](C(=O)NCC(=O)NCC(=O)N[C@@H](CS)C(=O)O)[C@@H](C)O)[C@@H](C)CC)C(C)C)C(C)C)[C@@H](C)O [PeNi8] (H-GILLNTLKGAAKNVAGVLLDKLKCKITGGC-OH; N-terminus and C-terminus assumed)
[1]
  MIC, E. coli ATCC 25922: 8 µg/mL (≈ 2.66 µM)
[2]
  MIC, Salmonella Enteritidis: 64 µg/mL (≈ 21.2 µM)
[3]
  MIC, S. aureus ATCC 29213: 4 to 8 µg/mL

## GILSGLLGAGKKIVC [OdMa4]
[1]
  MIC, E. coli ATCC 25922: 8 to 16 µg/mL
[2]
  MIC, Salmonella Enteritidis: 32 µg/mL
[3]
  MIC, S. aureus ATCC 29213: > 128 µg/mL

## FIKTQVLKHLVAGVRVARGLDWKWR [CaCa2]
[1]
  MIC, E. coli ATCC 25922: 8 µg/mL
[2]
  MIC, Salmonella Enteritidis: > 128 µg/mL
[3]
  MIC, S. aureus ATCC 29213: 64 to 128 µg/mL

## CC(C)C[C@H](NC(=O)CNC(=O)[C@H](CO)NC(=O)[C@@H](NC(=O)[C@@H](NC(=O)[C@H](CS)NC(=O)[C@H](CC(C)C)NC(=O)[C@@H](NC(=O)[C@H](CCCCN)NC(=O)[C@H](CCCCN)NC(=O)CNC(=O)[C@@H](NC(=O)CNC(=O)[C@H](CC(C)C)NC(=O)[C@@H](NC(=O)[C@H](CCCCN)NC(=O)CNC(=O)[C@H](CC(C)C)NC(=O)[C@H](CC(C)C)NC(=O)CN)C(C)C)C(C)C)C(C)C)C(C)C)C(C)C)C(=O)N[C@@H](CS)C(=O)O [PeNi2] (H-GLLGKVLGVGKKVLCVVSGLC-OH; N-terminus and C-terminus assumed)
[1]
  MIC, E. coli ATCC 25922: 4 µg/mL (≈ 1.96 µM)
[2]
  MIC, Salmonella Enteritidis: 16 to 32 µg/mL
[3]
  MIC, S. aureus ATCC 29213: 4 µg/mL (≈ 1.96 µM)

## GIYTGRLLPVYIPQPRPPHPRLRR [ApCe1]
[1]
  MIC, E. coli ATCC 25922: 4 to 8 µg/mL
[2]
  MIC, Salmonella Enteritidis: 16 to 32 µg/mL
[3]
  MIC, S. aureus ATCC 29213: > 128 µg/mL

## GILRLVTRRFRFSPTNLNRYTVARLVSGVP [BoAr6]
[1]
  MIC, E. coli ATCC 25922: 32 µg/mL
[2]
  MIC, Salmonella Enteritidis: 64 µg/mL
[3]
  MIC, S. aureus ATCC 29213: 64 to 128 µg/mL

## CC[C@H](C)[C@H](NC(=O)[C@H](CCCCN)NC(=O)[C@H](CCCCN)NC(=O)CNC(=O)[C@@H](NC(=O)CNC(=O)[C@H](CC(C)C)NC(=O)[C@@H](NC(=O)CNC(=O)[C@H](CO)NC(=O)[C@H](CC(C)C)NC(=O)[C@H](CC(C)C)NC(=O)CN)C(C)C)C(C)C)C(=O)N[C@H](C(=O)N[C@@H](CS)C(=O)NCC(=O)N[C@@H](CC(C)C)C(=O)N[C@@H](CO)C(=O)NCC(=O)N[C@@H](CC(C)C)C(=O)N[C@@H](CS)C(=O)O)C(C)C [OdMa6] (H-GLLSGVLGVGKKIVCGLSGLC-OH; N-terminus and C-terminus assumed)
[1]
  MIC, E. coli ATCC 25922: 8 to 16 µg/mL
[2]
  MIC, Salmonella Enteritidis: 128 µg/mL (≈ 64.9 µM)
[3]
  MIC, S. aureus ATCC 29213: 16 to 32 µg/mL

## GIFSLIKGAAKVVAKGLG [PeNi3, rAMPage-discovered AMP, Pelophylax nigromaculatus]
[1]
  MIC, E. coli ATCC 25922: 16 to 32 µg/mL
[2]
  MIC, Salmonella Enteritidis: 64 to 128 µg/mL
[3]
  MIC, S. aureus ATCC 29213: 64 to 128 µg/mL

## FLPSSPWNEGTYVLKKLKS [PeNi15]
[1]
  MIC, E. coli ATCC 25922: > 128 µg/mL
[2]
  MIC, Salmonella Enteritidis: > 128 µg/mL
[3]
  MIC, S. aureus ATCC 29213: > 128 µg/mL

## GIFSLIKGAAK [LeBo1]
[1]
  MIC, E. coli ATCC 25922: > 128 µg/mL
[2]
  MIC, Salmonella Enteritidis: > 128 µg/mL
[3]
  MIC, S. aureus ATCC 29213: > 128 µg/mL

## VAAFAIIGCLCCRRPRR [PoRo1]
[1]
  MIC, E. coli ATCC 25922: > 128 µg/mL
[2]
  MIC, Salmonella Enteritidis: > 128 µg/mL
[3]
  MIC, S. aureus ATCC 29213: > 128 µg/mL

## CC(C)C[C@H](NC(=O)CNC(=O)[C@@H](NC(=O)[C@@H](NC(=O)CNC(=O)[C@H](CS)NC(=O)[C@H](CC(C)C)NC(=O)[C@@H](NC(=O)[C@H](CCCCN)NC(=O)[C@H](CCCCN)NC(=O)CNC(=O)[C@@H](NC(=O)CNC(=O)[C@H](CC(C)C)NC(=O)[C@@H](NC(=O)[C@H](CCCCN)NC(=O)CNC(=O)[C@H](CC(C)C)NC(=O)[C@H](CC(C)C)NC(=O)CN)C(C)C)C(C)C)C(C)C)C(C)C)[C@@H](C)O)C(=O)N[C@@H](CS)C(=O)O [PeNi1] (H-GLLGKVLGVGKKVLCGVTGLC-OH)
[1]
  MIC, E. coli ATCC 25922: 4 µg/mL (≈ 1.99 µM)
[2]
  MIC, Salmonella Enteritidis: 8 to 16 µg/mL
[3]
  MIC, S. aureus ATCC 29213: 4 µg/mL (≈ 1.99 µM)

## RRAIFASIRGYLGLRKR [MyGu1]
[1]
  MIC, E. coli ATCC 25922: 4 µg/mL
[2]
  MIC, Salmonella Enteritidis: 8 to 16 µg/mL
[3]
  MIC, S. aureus ATCC 29213: 128 µg/mL

## CC[C@H](C)[C@H](NC(=O)[C@H](CCCCN)NC(=O)CNC(=O)[C@H](CC(C)C)NC(=O)[C@H](CC(C)C)NC(=O)CN)C(=O)N[C@@H](CC(C)C)C(=O)NCC(=O)N[C@H](C(=O)NCC(=O)N[C@@H](CCCCN)C(=O)N[C@@H](CCCCN)C(=O)N[C@H](C(=O)N[C@@H](CC(C)C)C(=O)N[C@@H](CS)C(=O)NCC(=O)N[C@H](C(=O)N[C@@H](CO)C(=O)NCC(=O)N[C@@H](CC(C)C)C(=O)N[C@@H](CS)C(=O)O)C(C)C)C(C)C)C(C)C [PeNi9] (H-GLLGKILGVGKKVLCGVSGLC-OH)
[1]
  MIC, E. coli ATCC 25922: 2 to 4 µg/mL
[2]
  MIC, Salmonella Enteritidis: 8 to 16 µg/mL
[3]
  MIC, S. aureus ATCC 29213: 4 to 8 µg/mL

## CC[C@H](C)[C@H](NC(=O)[C@H](CCCCN)NC(=O)[C@H](CS)NC(=O)[C@H](CCCCN)NC(=O)[C@H](CC(C)C)NC(=O)[C@H](CC(N)=O)NC(=O)[C@H](Cc1ccc(O)cc1)NC(=O)[C@H](CC(C)C)NC(=O)[C@H](CC(C)C)NC(=O)[C@@H](NC(=O)[C@@H](NC(=O)[C@H](C)NC(=O)[C@@H](NC(=O)[C@H](CC(N)=O)NC(=O)[C@H](CCCCN)NC(=O)[C@H](C)NC(=O)[C@@H](NC(=O)[C@H](CC(N)=O)NC(=O)[C@H](CCCCN)NC(=O)[C@H](C)NC(=O)[C@@H](NC(=O)[C@H](CC(=O)O)NC(=O)[C@H](CCSC)NC(=O)[C@H](Cc1ccccc1)NC(=O)CN)[C@@H](C)O)C(C)C)C(C)C)C(C)C)[C@@H](C)O)C(=O)N[C@H](C(=O)N[C@@H](CCCCN)C(=O)N[C@@H](C)C(=O)N[C@@H](CS)C(=O)O)[C@@H](C)O [OdMa12] (H-GFMDTAKNVAKNVAVTLLYNLKCKITKAC-OH; N-terminus and C-terminus assumed)
[1]
  MIC, E. coli ATCC 25922: 4 µg/mL (≈ 1.27 µM)
[2]
  MIC, Salmonella Enteritidis: 64 µg/mL (≈ 20.3 µM)
[3]
  MIC, S. aureus ATCC 29213: 64 to 128 µg/mL
